We go through 18 compounds from patent US5096902A, “Heterocyclic compounds containing nitrogen and sulfur, pharmaceutical compositions containing them and process for preparing same” (Richter Gedeon Vegyeszeti Gyar Rt., priority 1989, dated 1992).

For orientation: ED50 means the dose that gives a 50% effect, or the effect in half of the subjects. Read a high ED50 as weaker potency. The LD50 is the dose expected to kill half of the subjects tested.

Read-outs that look alike come from different tables or passages of the source.

The subject of one series is conscious mice. Nature of the series: Normobaric hypoxia test (96% nitrogen / 4% oxygen) in conscious mice. The settings on record: 50 mg/kg i.p.; for Survival time / response vs control in vivo at 50 mg/kg: 30 min before; for Survival time: three series with controls 6.32, 5.78 and 3.05 min; for response vs control in vivo at 50 mg/kg / responders at 50 mg/kg: Mus musculus, ip; for response vs control in vivo at 50 mg/kg: control = 100, read-out: Survival time, % (relative to control group); for responders at 50 mg/kg: protected = survival twice as long as control group, read-out: Protection. In kind it is in vivo. An excerpt: The antihypoxic activity was investigated on conscious mice under normobaric hypoxia. Five male mice each were placed in a glass cylinder of 3 liters volume, which a gaseous mixture containing 96% of nitrogen and 4% of oxygen was bubbled through. The interval passing from the accomodation of the animals until the cessation of their respiratory movement was registered as survival time. Animals surviving a time of two times as long as that of the control group, were considered to be protected.
Ten animals each were intraperitoneally (i.p.) given a dose of 50 mg/kg of body-weight (hereinafter abbreviated: mg/kg) each of the substances 30 minutes before the accommodation in the glass cylinders. The average time of survival, the percentage of elongation of survival time in comparison to that of the control group and the percentage of the animals protected are shown in Table I.

For series [1], the system named is mice. Nature of the series: Asphyxial anoxia test. In kind it is in vivo. The settings on record: Mus musculus; oral, mice starved 16 hours, 1 hour after treatment; protected = survival longer by 30% than control; probit analysis. On the procedure: (§1) The antihypoxic effect of the compounds according to the invention was proven also by using the methods of asphyxial anoxia and hypobaric hypoxia. These investigations were carried out by oral administration also proving the oral efficiency which makes possible use of the active compounds according to the invention in a tablet form.
Mice starved for 16 hours were orally treated with the compounds according to the invention and after one hour, they were placed into well-closed glass bottles of 100 ml volume. The interval passing from closing the bottle until the cessation of the respiratory movement was registered as survival time. Animals surviving longer by 30% than that of average survival time of the control group, were considered to be protected.
(§2) In the cases of both methods, the ED50 values, i.e. the dose protecting half of the treated animals from the hypoxia, were calculated by using probit analysis.

In series [2] the test system is mice. Nature of the series: Hypobaric hypoxia test. The settings on record: Mus musculus; oral, mice starved 16 hours, 170 Hgmm, 1 hour after treatment; protected = survival twice control; probit analysis. In kind it is in vivo. The protocol:
as §1
Mice starved for 16 hours were orally treated with the compounds according to the invention, and placed into a desiccator one hour following the treatment. The pressure in the desiccator was reduced to 170 Hgmm within 20 seconds and the survival time was registered from this time until the cessation of respiratory movement. Animals surviving twice as long as the average survival time of the control group were considered to be protected.
as §2

A further series can be described thus: Toxicity (LD50) on mice. The settings on record: mouse, in vivo. On the procedure:
The toxicity of the active compound of Example 35a according to the invention was determined on mice.

Regarding `O=C(CCN1CCSC1)c1ccccc1` [Example 1, 1-phenyl-3-(thiazolidinyl)propan-1-one], in the series with conscious mice, the Survival time worked out at 9.35 min, the response vs control in vivo at 50 mg/kg is 148% and the responders at 50 mg/kg is 30%.

For `COc1ccc(C(=O)CCN2CCSC2)cc1` [Example 8], in the series with conscious mice, the Survival time turned out to be 8.27 min, the response vs control in vivo at 50 mg/kg is 131% and the responders at 50 mg/kg is 20%.

Take `COc1ccc(C(=O)CCN2CCSC2)c(C)c1` [Example 12]: in the series with conscious mice, the Survival time was found to be 10.28 min, the response vs control in vivo at 50 mg/kg was 178% and the responders at 50 mg/kg worked out at 40%.

Turning to `O=C(CCN1CCSC1)c1ccc(Cl)cc1` [Example 17], the ED50 with mice [1] was 55 mg/kg. In addition, it took a dose of 60 mg/kg to reach the 50% effect level in the series on mice [2] (ED50). In addition, in the series on conscious mice, the Survival time was found to be 11.00 min, the response vs control in vivo at 50 mg/kg is 174% and the responders at 50 mg/kg worked out at 60%.

For the compound `O=C(CCN1CCSC1)c1ccc(Br)cc1` [Example 18], in the series on conscious mice, the Survival time came out at 10.58 min, the response vs control in vivo at 50 mg/kg is 167% and the responders at 50 mg/kg was found to be 50%.

As for `O=C(CCN1CCSC1)c1ccc(Cl)c(Cl)c1` [Example 19], in the series on conscious mice, the Survival time turned out to be 7.90 min, the response vs control in vivo at 50 mg/kg was determined as 125% and the responders at 50 mg/kg came to 20%.

Turning to `O=C(CCN1CCSC1)c1cccc([N+](=O)[O-])c1` [Example 20], in the series with conscious mice, the Survival time came out at 7.85 min, the response vs control in vivo at 50 mg/kg amounted to 136% and the responders at 50 mg/kg is 20%.

For `CC(CN1CCSC1)C(=O)c1ccccc1` (stereo not drawn) [Example 22], in the series with conscious mice, the Survival time came to 9.27 min, the response vs control in vivo at 50 mg/kg amounted to 147% and the responders at 50 mg/kg was determined as 30%.

As to `CC(CN1CCSC1)C(=O)c1ccc(F)cc1` (stereo not drawn) [Example 27], in the series on conscious mice, the Survival time came to 5.32 min, the response vs control in vivo at 50 mg/kg came to 174% and the responders at 50 mg/kg was found to be 20%.

`CC(CN1CCSC1)C(=O)c1ccc(Br)cc1` (stereo not drawn) [Example 30]: in the series with conscious mice, the Survival time is 8.40 min, the response vs control in vivo at 50 mg/kg came to 145% and the responders at 50 mg/kg amounted to 40%.

Regarding `CSc1ccc(C(=O)CCN2CCSC2)cc1` [Example 34, 1-(4-methylthiophenyl)-3-(3-thiazolidinyl)propan-1-one], in the series with conscious mice, the Survival time came out at 12.76 min, the response vs control in vivo at 50 mg/kg amounted to 202% and the responders at 50 mg/kg is 70%.

Regarding `O=C(CCN1CCSC1)c1ccc(F)cc1` [Example 35a, 1-(4-fluorophenyl)-3-(3-thiazolidinyl)propan-1-one], the 50% effective dose (ED50) stood at 18.3 mg/kg in the series on mice [1] and 58.7 mg/kg in the series with mice [2]. Moreover, the LD50 was 108 mg/kg in “Toxicity (LD50) on mice” (intravenous, read-out: LD50 intravenously) and 646 mg/kg in “Toxicity (LD50) on mice” (oral, read-out: LD50 orally). Also, the Survival time with conscious mice was 10.75 min. The response vs control in vivo at 50 mg/kg with conscious mice stood at 186%. Besides, in the series with conscious mice, the responders at 50 mg/kg is 60%.

As for `O=C(CCN1CCSC1)c1cccs1` [Example 37, 1-(2-thienyl)-3-(3-thiazolidinyl)propan-1-one], in the series on conscious mice, the Survival time was determined as 12.22 min, the response vs control in vivo at 50 mg/kg was 211% and the responders at 50 mg/kg was 60%.

Consider `CCc1ccc(C(=O)CCN2CCSC2)s1` [Example 38], for which, in the series on conscious mice, the Survival time worked out at 9.95 min, the response vs control in vivo at 50 mg/kg came to 172% and the responders at 50 mg/kg is 30%.

As to `O=C(CCN1CCSC1)c1ccc(Cl)s1` [Example 39], in the series on conscious mice, the Survival time was 10.43 min, the response vs control in vivo at 50 mg/kg turned out to be 180% and the responders at 50 mg/kg worked out at 40%.

As to `CC(CN1CCSC1)C(=O)c1cccs1` (stereo not drawn) [Example 41], in the series with conscious mice, the Survival time was found to be 8.91 min, the response vs control in vivo at 50 mg/kg turned out to be 154% and the responders at 50 mg/kg is 20%.

With `O=C(CCN1CCCSC1)c1ccc(-c2ccccc2)cc1` [Example 49], in the series with conscious mice, the Survival time stood at 9.72 min, the response vs control in vivo at 50 mg/kg came out at 154% and the responders at 50 mg/kg was found to be 30%.

Regarding `COC(=O)C1N(CCC(=O)c2ccc(F)cc2)CSC1(C)C` (stereo not drawn) [Example 70], in the series with conscious mice, the Survival time was found to be 5.78 min, the response vs control in vivo at 50 mg/kg is 189% and the responders at 50 mg/kg was 60%.
